Measurements taken from PubChem BioAssay (NCI).
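Results reflect a 48-hour exposure of cells in 96-well plates to compound at five concentrations. The concentration for full growth arrest is given as TGI.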 Where a SMILES comes first, the peptide text is derived from it. [ ]: non-standard residue; d: D form. pGlu = O=C1CC[CH](C(=O)O)N1

Assays:
Test in all cases: DTP human tumour cell line panel, 48 h
NCI-H460 lung = system: NCI-H460 lung
RXF 393 renal = system: RXF 393 renal
MDA-MB-435 = system: MDA-MB-435
DU-145 prostate = system: DU-145 prostate
NCI-H226 lung = system: NCI-H226 lung
CCRF-CEM leukemia = system: CCRF-CEM leukemia
HL-60(TB) leukemia = system: HL-60(TB) leukemia
TK-10 renal = system: TK-10 renal
SNB-75 CNS = system: SNB-75 CNS
MALME-3M melanoma = system: MALME-3M melanoma

SMILES	TGI (NCI-H460 lung)	TGI (RXF 393 renal)	TGI (MDA-MB-435)	TGI (DU-145 prostate)	TGI (NCI-H226 lung)	TGI (CCRF-CEM leukemia)	TGI (HL-60(TB) leukemia)	TGI (TK-10 renal)	TGI (SNB-75 CNS)	TGI (MALME-3M melanoma)
COc1ccc(S(=O)(=O)Nc2ccc(-c3csc(N4C(=O)/C(=C/c5ccccc5)N=C4c4ccccc4)n3)cc2)cc1Cl	> 100 µM	73.3 µM	> 100 µM	86.8 µM	> 100 µM	> 100 µM	87.4 µM	> 100 µM	> 100 µM	> 100 µM
COc1nc2ccc(CNc3ccc(C(=O)O)cc3)cc2nc1OC	> 10 µM	> 10 µM	> 10 µM	> 10 µM	> 10 µM	> 10 µM	> 10 µM	> 10 µM	> 10 µM	> 10 µM
COc1ccc(N2C(N)=C(C#N)C(C#N)(C#N)C2c2cccc([N+](=O)[O-])c2)cc1 (stereo not given)		23.6 µM	31.9 µM	31.7 µM	35.4 µM	> 24.6 µM	> 25.7 µM	30.9 µM	35.1 µM	16 µM
COc1c(-c2cccs2)oc2c(CC(=O)O)cccc2c1=O		> 100 µM	> 100 µM	> 100 µM		> 100 µM	> 100 µM	> 100 µM		> 100 µM
COc1ccc(-c2nnc(-c3ccncc3)o2)cc1		> 100 µM	> 100 µM	> 100 µM	> 100 µM	> 100 µM	> 100 µM	> 100 µM	> 100 µM	> 100 µM
O=C(O)CN(CC(=O)O)Cc1ccn(-c2cccc(-n3ccc(CN(CC(=O)O)CC(=O)O)n3)n2)n1	> 100 µM	> 100 µM	> 100 µM	> 100 µM	> 100 µM		> 100 µM	> 100 µM	> 100 µM	> 100 µM
CCNc1cc2c3c(c1)CCCN3CCC2	29.8 µM	> 100 µM	11.2 µM	> 100 µM	41.9 µM	6.43 µM	35 µM	> 100 µM	32.7 µM	44.6 µM
CCCCC1(N=[N+]=[N-])C(=O)C2C=CC=C3c4ccccc4N(C1=O)C32 (stereo not given)	> 31.6 µM	23.7 µM	> 31.6 µM	> 100 µM	> 31.6 µM	> 31.6 µM	> 100 µM	> 31.6 µM	23.1 µM	> 31.6 µM
CC(C)(C)c1cc(/C=C/C(=O)CC(=O)/C=C/c2cc(C(C)(C)C)c(O)c(C(C)(C)C)c2)cc(C(C)(C)C)c1O	> 50 µM	> 50 µM	> 50 µM	> 50 µM	> 50 µM	> 50 µM	> 50 µM	> 50 µM	> 50 µM	
COC(=O)C(Cc1ccccc1)NC(=O)c1ccc(CNC(=S)NCc2cccc(CNC(=S)NCc3ccccc3)c2)cc1 (stereo not given)	> 62.5 µM	> 62.5 µM	> 62.5 µM	> 62.5 µM	> 62.5 µM	> 62.5 µM	> 62.5 µM	> 62.5 µM	> 62.5 µM	> 62.5 µM
CCCC(=O)Nc1cc(/C=C/C(=O)N2CC(CCl)c3c2cc([N+](=O)[O-])c2ccccc32)n(C)c1 (stereo not given)	> 100 µM	> 100 µM	> 100 µM	> 100 µM	> 100 µM	> 100 µM	27.2 µM	> 100 µM	97.7 µM	
CC(NC(=O)C(Cc1cnc[nH]1)NC(=O)C1CCC(=O)N1)C(N)=O (stereo not drawn) ([pGlu]-His-Ala-NH2; configuration not given here)	> 100 µM	> 100 µM	> 100 µM	> 100 µM	> 100 µM	> 100 µM	> 100 µM	> 100 µM	> 100 µM	> 100 µM
Cc1nc2c(Cl)cc(Cl)cc2c(Cl)c1CCCl	> 100 µM	79.3 µM	> 100 µM	> 100 µM	> 100 µM	> 100 µM	> 100 µM	> 100 µM	> 100 µM	> 100 µM
CC(O)c1cc2c(s1)C(=O)c1scc(C(C)O)c1C2=O (stereo not given)	2.1 µM	2.57 µM	0.455 µM	1.73 µM	4.03 µM	> 100 µM	> 100 µM	3.37 µM	0.767 µM	0.35 µM
Cc1ccc(C(=O)C2=CN=C3C(=O)N(c4ccccc4)N(C)C3(C)C2=N)cc1 (stereo not given)	> 100 µM	> 100 µM	> 100 µM	> 100 µM	> 100 µM	> 100 µM	> 100 µM	> 100 µM	> 100 µM	> 100 µM
COc1ccc(CCNC(=O)CCCCCO)cc1OC	> 100 µM	> 100 µM	> 100 µM	> 100 µM	> 100 µM	> 100 µM	> 100 µM	> 100 µM	> 100 µM	
CO[C@H]1C[C@H](n2cc(C)c(=O)[nH]c2=O)O[C@@H]1CO	> 100 µM	> 100 µM	> 100 µM	> 100 µM	> 100 µM	> 100 µM	> 100 µM	> 100 µM	> 100 µM	> 100 µM
CCOC(=O)Cn1nnc2cc(Nc3nc4ccccc4nc3C(=O)OCC)ccc21	> 100 µM	64.8 µM	> 100 µM	> 100 µM	> 100 µM	> 100 µM	> 100 µM	59 µM	9.39 µM	> 100 µM
CN(C)CCNC(=O)c1cccc2[nH]c(-c3ccncc3)nc12	8.22 µM	14.5 µM	3.63 µM	> 100 µM	> 50.5 µM	7.77 µM	4.06 µM	16.9 µM	26.5 µM	3.75 µM
COC(=O)c1c(O)ccc2c1c1c(n2Cc2ccccc2OC)C(=O)c2ccccc2C1	> 100 µM	88.1 µM	> 100 µM	> 100 µM	> 100 µM	81.2 µM	> 100 µM	> 100 µM	> 100 µM	> 100 µM
COc1cc(/C=C2\N=C(C)N(n3c(-c4ccccc4)nc4ccccc4c3=O)C2=O)cc(OC)c1OC	> 100 µM		> 100 µM	> 100 µM	> 100 µM	> 100 µM	> 100 µM	> 100 µM	> 100 µM	> 100 µM
